Experiments:
[1] = target: T1, EcR+Usp (Drosophila melanogaster, UniProt P34021); details: cited from earlier work
T1 sequence (P34021 1-878): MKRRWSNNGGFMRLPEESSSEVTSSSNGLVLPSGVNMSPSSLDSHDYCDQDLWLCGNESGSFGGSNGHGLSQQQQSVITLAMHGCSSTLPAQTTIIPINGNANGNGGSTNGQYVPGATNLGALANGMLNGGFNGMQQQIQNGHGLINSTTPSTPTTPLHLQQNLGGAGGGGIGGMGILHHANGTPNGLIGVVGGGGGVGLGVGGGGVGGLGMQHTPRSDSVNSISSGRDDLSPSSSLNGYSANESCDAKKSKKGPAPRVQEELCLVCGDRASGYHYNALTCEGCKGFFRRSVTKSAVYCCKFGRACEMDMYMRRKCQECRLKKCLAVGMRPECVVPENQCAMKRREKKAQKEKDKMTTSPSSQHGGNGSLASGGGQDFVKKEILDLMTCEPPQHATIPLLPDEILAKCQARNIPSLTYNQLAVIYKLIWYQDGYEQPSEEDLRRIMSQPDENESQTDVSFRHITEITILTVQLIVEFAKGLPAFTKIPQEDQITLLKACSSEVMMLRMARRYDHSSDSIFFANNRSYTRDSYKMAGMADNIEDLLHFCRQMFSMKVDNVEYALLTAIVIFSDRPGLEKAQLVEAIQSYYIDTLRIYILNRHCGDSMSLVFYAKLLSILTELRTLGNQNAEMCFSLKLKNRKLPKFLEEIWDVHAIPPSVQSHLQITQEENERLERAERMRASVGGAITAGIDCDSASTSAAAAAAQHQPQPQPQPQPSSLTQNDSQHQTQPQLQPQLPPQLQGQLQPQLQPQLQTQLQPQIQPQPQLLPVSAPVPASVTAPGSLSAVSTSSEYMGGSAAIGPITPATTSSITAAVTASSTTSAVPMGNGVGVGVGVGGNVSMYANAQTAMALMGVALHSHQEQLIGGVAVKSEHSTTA
T1 sequence (P20153 1-508 partner): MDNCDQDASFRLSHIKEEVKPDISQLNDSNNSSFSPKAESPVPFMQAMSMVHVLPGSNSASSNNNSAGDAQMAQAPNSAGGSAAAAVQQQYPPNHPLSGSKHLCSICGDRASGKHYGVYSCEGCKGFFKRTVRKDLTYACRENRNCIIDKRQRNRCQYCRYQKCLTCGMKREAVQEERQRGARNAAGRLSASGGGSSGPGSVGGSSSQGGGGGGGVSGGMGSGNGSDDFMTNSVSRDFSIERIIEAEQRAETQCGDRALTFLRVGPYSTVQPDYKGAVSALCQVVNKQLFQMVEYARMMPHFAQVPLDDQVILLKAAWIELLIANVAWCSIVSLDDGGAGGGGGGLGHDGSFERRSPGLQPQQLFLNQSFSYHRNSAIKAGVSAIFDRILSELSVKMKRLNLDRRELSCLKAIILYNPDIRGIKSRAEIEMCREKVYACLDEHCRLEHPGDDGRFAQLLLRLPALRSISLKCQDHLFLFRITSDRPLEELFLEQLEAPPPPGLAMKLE

[2] = target: T2, GRU1.2D-3 (Bombyx mori, UniProt P49881); experiment: transient transfection luciferase expression assay (GalO-luc reporter) with VHB and GRU1.2D-3; type: cell-based; details: GRU1.2D-3 point mutant (Cys329 to Gly); 1 micromolar ligand, 48 hrs
T2 construct: BEcR hinge domain and HBD (corresponding to amino acids 272 to 606); expressed in transfected cells
T2 sequence (P49881 272-606): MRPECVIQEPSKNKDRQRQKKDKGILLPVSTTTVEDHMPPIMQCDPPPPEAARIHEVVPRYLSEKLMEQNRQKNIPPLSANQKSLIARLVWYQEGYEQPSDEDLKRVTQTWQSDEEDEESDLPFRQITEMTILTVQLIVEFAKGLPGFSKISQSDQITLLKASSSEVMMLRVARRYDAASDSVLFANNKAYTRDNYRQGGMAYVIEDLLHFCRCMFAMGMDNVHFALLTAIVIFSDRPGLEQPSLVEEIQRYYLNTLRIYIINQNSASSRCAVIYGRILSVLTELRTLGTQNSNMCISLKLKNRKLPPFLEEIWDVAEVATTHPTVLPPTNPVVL
Method: (§1) All construction and cloning was performed by standard methods and as described by Suhr et al., in Proc Natl Acad Sci USA 95(14):7999-8004 (1998) for similar chimeric proteins. For the VHB protein combining the transactivation domain of HSV VP16 protein with the hinge and hormone binding/heterodimerization domain (HBD) of Bombyx mori EcR (BEcR), the 77 amino acid (231 base pair) VP16 domain was amplified by PCR with an in-frame Mlul site at the 3′ end that was ligated with an identical site introduced into the 5′ end of the BEcR hinge domain and HBD (corresponding to amino acids 272 to 606). The final construct, termed VHB, functionally couples the VP16 domain with the BEcR high-affinity hormone responsive domains (see FIG. 3). This DNA was introduced into a number of expression constructs for expression in transduced cells.
(§2) The DNA-binding dimer partner protein fused the 95 amino acid Gal4 DNA binding domain via a BspE I site at the 3′ end to a region of either the RXR or Usp protein with high affinity ligand dependent interaction with BEcR. These variants used amino acids 200-462 of the human RXR alpha protein or amino acids 169-507 of the Drosophila Usp protein (see FIG. 3). These proteins are termed GR (for the RXR variant) or GU (for the Usp variant). […]

[3] = target: T3, GRU variant 1.2 (Bombyx mori, UniProt P49881); experiment: transient transfection luciferase expression assay (GalO-luc reporter) with RXR-USP chimeric protein GRU variant 1.2; type: cell-based; details: 1 micromolar ligand, 48 hrs
T3 construct: BEcR hinge domain and HBD (corresponding to amino acids 272 to 606); expressed in transfected cells
T3 sequence (P49881 272-606): T2 sequence (P49881 272-606)
Method: as §1, §2

[4] = system: mammals and other non-insect species; details: extensive testing in animal hosts; cited from earlier work
[5] = target: T4, EcR+RXR (Drosophila melanogaster, UniProt P34021); details: compared with 20-hydroxyecdysone; literature; cited from earlier work
T4 sequence (P34021 1-878): T1 sequence (P34021 1-878)
T4 sequence (P19793 1-462 partner): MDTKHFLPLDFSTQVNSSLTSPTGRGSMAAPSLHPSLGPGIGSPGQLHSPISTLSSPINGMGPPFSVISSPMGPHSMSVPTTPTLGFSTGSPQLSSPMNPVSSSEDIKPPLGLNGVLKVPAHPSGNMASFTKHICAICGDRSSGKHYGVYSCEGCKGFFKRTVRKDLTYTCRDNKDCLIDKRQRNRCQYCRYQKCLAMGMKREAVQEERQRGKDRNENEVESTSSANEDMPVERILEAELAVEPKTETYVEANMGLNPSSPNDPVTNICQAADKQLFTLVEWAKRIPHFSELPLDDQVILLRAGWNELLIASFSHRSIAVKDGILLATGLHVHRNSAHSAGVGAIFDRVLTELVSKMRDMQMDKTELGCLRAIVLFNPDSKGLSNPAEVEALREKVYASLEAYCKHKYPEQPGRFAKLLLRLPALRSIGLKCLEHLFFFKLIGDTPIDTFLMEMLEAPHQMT

Compound	stimulation of formation of EcR+Usp heterodimers ([1]; literature)	response to ligand (transactivation) [2]	response to ligand (transactivation) [3]	toxicity to mammals and other non-insect species [4]	stimulation of EcR+Usp binding of EcREs over levels without ligand ([1]; literature (Christopherson, Thomas, Yao)) [fold]	stimulation of formation of EcR+RXR heterodimers [5]
CC(C)(O)CC[C@@H](O)[C@](C)(O)[C@H]1CC[C@@]2(O)C3=CC(=O)[C@@H]4C[C@@H](O)[C@@H](O)C[C@]4(C)[C@H]3CC[C@]12C [20-OH ecdysone, 20-Hydroxy-ecdysone]	potently stimulated	high level response	good response			
CCc1ccc(C(=O)NN(C(=O)c2cc(C)cc(C)c2)C(C)(C)C)cc1 [tebufenozide]		high level response	good response	very low toxicity		
CC(C)CC[C@@H](O)[C@](C)(O)[C@H]1CC[C@@]2(O)C3=CC(=O)[C@]4(O)C[C@@H](O)[C@@H](O)C[C@]4(C)[C@H]3[C@H](O)C[C@]12C [muristerone A]					3 to 7	more highly stimulated

From patent publication US20040102367A1, “Gene expression system based on chimeric receptors” (priority 2002, published 2004)
